We go through 30 compounds from ChEMBL document CHEMBL5104182, “Design and Synthesis of a 2-Amino-pyridine Derivative as a Potent CDK8 Inhibitor for Anti-colorectal Cancer Therapy” (J Med Chem, 2022).

SMILES strings stand for the structures. Where only a bound is given, the exact number is not on record here.

The GI50 is the concentration giving 50% growth inhibition. What is called IC50 is the midpoint of a concentration-inhibition curve. As a reminder, the inhibition is the percentage by which the read-out fell short of the control. Low values mean a response near the control, high ones a response far below the control.

For one series, the system named is HCT-116. The experiment in a line: Antiproliferative activity against human HCT-116 cells assessed as cell viability incubated for 48 hrs by MTT assay. It counts as functional. (Formazan colour is commonly taken as a measure of viable cells.)
The next series relates to HT-29. The experiment in a line: Antiproliferative activity against human HT-29 cells assessed as cell viability incubated for 48 hrs by MTT assay. It counts as functional.
A further series concerns SW480. The experiment in a line: Antiproliferative activity against human SW480 cells assessed as cell viability incubated for 48 hrs by MTT assay. It counts as functional.
Another series deals with CT26. As to the kind of experiment: Antiproliferative activity against […] cells assessed as cell viability incubated for 48 hrs by MTT assay. It counts as functional. The settings on record: Mus musculus.
A short description of series [1]: Cytotoxicity against human GES1 cells assessed as cell viability incubated for 48 hrs by MTT assay. It counts as toxicity, cell-based.
The target of series [2] is T1, Cyclin-dependent kinase 8 (Homo sapiens, UniProt P49336). The experiment in a line: Inhibition of CDK8 (unknown origin) assessed as inhibition rate.
In series [3] the target is T1, Cyclin-dependent kinase 8. The settings on record: dose 200.0 nM.

T1 sequence (P49336 whole entry): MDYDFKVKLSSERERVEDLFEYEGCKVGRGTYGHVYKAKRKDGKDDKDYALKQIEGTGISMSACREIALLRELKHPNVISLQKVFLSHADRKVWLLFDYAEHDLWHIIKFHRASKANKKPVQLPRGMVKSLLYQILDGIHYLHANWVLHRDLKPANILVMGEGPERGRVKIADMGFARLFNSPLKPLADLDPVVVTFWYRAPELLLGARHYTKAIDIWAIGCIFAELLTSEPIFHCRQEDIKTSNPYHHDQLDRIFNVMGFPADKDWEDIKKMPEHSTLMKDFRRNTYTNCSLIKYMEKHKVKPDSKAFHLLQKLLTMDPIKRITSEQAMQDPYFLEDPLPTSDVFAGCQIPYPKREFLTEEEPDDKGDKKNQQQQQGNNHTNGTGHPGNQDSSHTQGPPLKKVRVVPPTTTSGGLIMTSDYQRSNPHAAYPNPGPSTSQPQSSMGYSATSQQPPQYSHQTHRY

In the case of `Cc1ccc(NC(=O)Nc2cccc(Oc3ccc(N)nc3)c2)cc1Cl`, the GI50 with HCT-116, in the series on HT-29, in the series on SW480 and in the series on CT26 was greater than 100 µM each time. In addition, the GI50 at 48 h in series [1] is greater than 100 µM.
`Nc1ccc(Oc2cccc(NC(=O)Nc3cccc(Cl)c3)c2)cn1`: the GI50 in the series on HCT-116 is 29.7 µM; in the series with HT-29 it was 36.1 µM; with SW480, 44.2 µM; in the series with CT26, 70.4 µM. For the same compound, the GI50 at 48 h in series [1] was greater than 100 µM.
`Cc1cccc(NC(=O)Nc2ccc(Oc3ccc(N)nc3)cc2)c1`: the GI50 is 37.4 µM in the series with HCT-116, 59.4 µM in the series with HT-29, 12.5 µM in the series on SW480 and greater than 100 µM in the series on CT26. For the same compound, the GI50 at 48 h in series [1] was greater than 100 µM.
In the case of `O=C(Nc1cccc(Oc2cnc3[nH]ccc3c2)c1)Nc1ccc(Cl)c(C(F)(F)F)c1`, the GI50 was 53.2 µM in the series with HCT-116, 100 µM in the series on HT-29, 100 µM in the series with SW480 and greater than 100 µM in the series with CT26.
For `Nc1ccc(Oc2ccc(NC(=O)Nc3cccc(Br)c3)cc2)cn1`, the GI50 was greater than 100 µM with HCT-116, greater than 100 µM with HT-29, 14 µM in the series with SW480 and 35.6 µM in the series on CT26. For the same compound, in series [1], the GI50 at 48 h is greater than 100 µM.
Turning to `Nc1ccc(Oc2cccc(NC(=O)Nc3ccc(Cl)c(Cl)c3)c2)cn1`, the GI50 with HCT-116 is 7.6 µM; in the series with HT-29, 30.3 µM; in the series on SW480 it was 29.2 µM; with CT26, 32.4 µM. Also, the GI50 at 48 h in series [1] is greater than 100 µM.
On to `Nc1ccc(Oc2ccc(NC(=O)Nc3cccc(Cl)c3Cl)cc2)cn1`, for which the GI50 with HCT-116 was found to be 54.6 µM; with HT-29, 18.8 µM; in the series with SW480, 77.5 µM; in the series with CT26, 88.2 µM. Moreover, in series [1], the GI50 at 48 h was greater than 100 µM.
Regarding `Cn1cc(-c2ccc(-c3cncc(Cl)c3N3CCC4(CCNC4=O)CC3)cc2)cn1`, in series [2], the IC50 came out at 0.0385 µM. The GI50 was 9.6 µM with HCT-116, 7.8 µM with HT-29, 10.4 µM with SW480 and 11.3 µM with CT26. The GI50 at 48 h in series [1] is 42.7 µM. The compound further registered an inhibition in series [3] of 79%.
As for `CC(=O)Nc1ccc(Oc2ccc(NC(=O)Nc3cccc(C(F)(F)F)c3)cc2)cn1`, the GI50 in the series with HCT-116 worked out at 1.8 µM; with HT-29, 8.6 µM; with SW480, 18.4 µM; in the series with CT26 it was 42.7 µM. Further, in series [1], the GI50 at 48 h came to 28.2 µM.
For `O=C(Nc1ccc(Oc2cnc3[nH]ccc3c2)cc1)Nc1ccc(Cl)c(C(F)(F)F)c1`, the figures for the GI50 in the series on HT-29, in the series on SW480 and in the series on CT26 were 2.3 µM, 1.4 µM and 8.3 µM, respectively.
Turning to `Nc1ccc(Oc2ccc(NC(=O)Nc3ccc(F)c(C(F)(F)F)c3)cc2)cn1`, the GI50 in the series on HCT-116 amounted to 11.2 µM; in the series on HT-29, 8.5 µM; with SW480, 15.5 µM; with CT26, 7.4 µM. For the same compound, the GI50 at 48 h in series [1] came to 52.5 µM.
For the compound `O=C(Nc1cccc(Oc2cnc3[nH]ccc3c2)c1)Nc1cccc(C(F)(F)F)c1`, the GI50 in the series on HCT-116 was 8 µM; in the series with HT-29 it was 1.1 µM; in the series on SW480, 2.5 µM; in the series with CT26, 8.7 µM. For the same compound, the GI50 at 48 h in series [1] came to 40.7 µM.
The matching figures for `Nc1ccc(Oc2cccc(NC(=O)Nc3ccc(F)cc3)c2)cn1`: greater than 100 µM, greater than 100 µM, 10.9 µM, 52.3 µM and greater than 100 µM.
Consider `Nc1ccc(Oc2cccc(NC(=O)Nc3cccc(Br)c3)c2)cn1`, for which the GI50 with HCT-116 stood at 21.3 µM; in the series on HT-29, 50 µM; in the series on SW480, 29.6 µM; in the series with CT26, 44.5 µM. Moreover, the GI50 at 48 h in series [1] was greater than 100 µM.
The matching figures for `Nc1ccc(Oc2cccc(NC(=O)Nc3ccc(F)c(C(F)(F)F)c3)c2)cn1`: 7.4 µM, 7.7 µM, 12.8 µM, 25.5 µM and 39.1 µM.
On the same counts, the results for `Nc1ccc(Oc2cccc(NC(=O)Nc3ccc(Cl)c(C(F)(F)F)c3)c2)cn1` are 9.5 µM, 8.1 µM, 9.1 µM, 5.2 µM and 10.2 µM.
On the same counts, the results for `CNC(=O)c1cc(Oc2ccc(NC(=O)Nc3ccc(Cl)c(C(F)(F)F)c3)cc2)ccn1` [SORAFENIB] are 19.8 µM, 25.6 µM, 14.7 µM, 30.2 µM and 28.9 µM.
Turning to `Nc1ccc(Oc2cccc(NC(=O)Nc3ccc(F)c(Cl)c3)c2)cn1`, the GI50 in the series with HCT-116 is 4 µM; in the series on HT-29, 19.1 µM; in the series with SW480, 17.9 µM; in the series with CT26 it was 23.5 µM. Besides, in series [1], the GI50 at 48 h is 31.3 µM.
The matching figures for `Nc1ccc(Oc2ccc(NC(=O)Nc3cccc(Cl)c3)cc2)cn1`: 12.5 µM, 8.5 µM, 13.2 µM, greater than 100 µM and 65.5 µM.
The matching figures for `Nc1ccc(Oc2cccc(NC(=O)Nc3ccccc3F)c2)cn1`: 34.4 µM, 27.5 µM, 43 µM, 83.1 µM and 43.6 µM.
For `Nc1ccc(Oc2cccc(NC(=O)Nc3cccc(C(F)(F)F)c3)c2)cn1`, the 50% growth inhibitory concentration (GI50) came out at 1.7 µM in the series with HCT-116, 2.5 µM in the series on HT-29, 10.4 µM with SW480 and 6.9 µM with CT26. Besides, the GI50 at 48 h in series [1] is greater than 100 µM.
On the same counts, the results for `Nc1ccc(Oc2ccc(NC(=O)Nc3cccc(F)c3)cc2)cn1` are 70.9 µM, 49.9 µM, 45.2 µM, 66.7 µM and greater than 100 µM.
The matching figures for `Cc1ccc(NC(=O)Nc2cccc(Oc3ccc(N)nc3)c2)cc1`: greater than 100 µM, 19 µM, greater than 100 µM, greater than 100 µM and greater than 100 µM.
In the case of `COc1cccc(NC(=O)Nc2ccc(Oc3ccc(N)nc3)cc2)c1`, the GI50 with HCT-116 is 20.4 µM; in the series with HT-29, 9 µM; in the series on SW480 it was 22.5 µM; with CT26, greater than 100 µM. Further, the GI50 at 48 h in series [1] turned out to be 43.2 µM.
On the same counts, the results for `Nc1ccc(Oc2ccc(NC(=O)Nc3ccc(Cl)c(C(F)(F)F)c3)cc2)cn1` are 15.7 µM, 3.4 µM, 3.9 µM, 12.9 µM and 26.8 µM.
Regarding `Cc1cccc(NC(=O)Nc2cccc(Oc3ccc(N)nc3)c2)c1`, the GI50 in the series on HCT-116 is 26.6 µM; with HT-29, 41.5 µM; with SW480 it was 66.3 µM; in the series with CT26, greater than 100 µM. Moreover, the 50% growth inhibitory concentration (GI50) at 48 h in series [1] is greater than 100 µM.
As for `O=C(Nc1ccc(Oc2cnc3[nH]ccc3c2)cc1)Nc1cccc(C(F)(F)F)c1`, the GI50 in the series with HT-29 turned out to be 2.1 µM; in the series on SW480, 1.9 µM; in the series with CT26, 5.3 µM.
Take `Nc1ccc(Sc2ccc(NC(=O)Nc3cccc(C(F)(F)F)c3)cc2)cn1`: the GI50 in the series with HCT-116 came out at 43.6 µM; with HT-29, 16.7 µM; in the series with SW480, 8.2 µM; in the series on CT26, 10.3 µM. In addition, in series [1], the GI50 at 48 h was greater than 100 µM.
As for `Cc1ccc(NC(=O)Nc2ccc(Oc3cnc4[nH]ccc4c3)cc2)cc1C(F)(F)F`, the GI50 in the series on HCT-116 is greater than 100 µM; in the series with HT-29, 39.8 µM; with SW480, 30.1 µM; in the series on CT26 it was 55.2 µM. The GI50 at 48 h in series [1] is 24 µM.
As for `O=C(Nc1ccc(Oc2cnc3[nH]ccc3c2)cc1)Nc1cccc(Cl)c1`, the GI50 in the series on HCT-116 turned out to be 90.1 µM; in the series on HT-29, 41.1 µM; in the series on SW480, 30.7 µM; in the series on CT26, 20.9 µM.
